Read-outs that look alike come from different tables or passages of the source.
What was measured:
Format in all cases: biochemical
[1] = molecular target: T1, JMJD2E (Homo sapiens, UniProt B2RXH2); assay: JMJD2E FDH-coupled assay under low and high iron conditions (iron chelation profile); design: The catalytic domain of human JMJD2E (residues 1–337); His6 (N); made in house; host or cells: E. coli; conditions: Table S1; for IC50: unit not in table, from Figure 2
T1 sequence (B2RXH2 1-337): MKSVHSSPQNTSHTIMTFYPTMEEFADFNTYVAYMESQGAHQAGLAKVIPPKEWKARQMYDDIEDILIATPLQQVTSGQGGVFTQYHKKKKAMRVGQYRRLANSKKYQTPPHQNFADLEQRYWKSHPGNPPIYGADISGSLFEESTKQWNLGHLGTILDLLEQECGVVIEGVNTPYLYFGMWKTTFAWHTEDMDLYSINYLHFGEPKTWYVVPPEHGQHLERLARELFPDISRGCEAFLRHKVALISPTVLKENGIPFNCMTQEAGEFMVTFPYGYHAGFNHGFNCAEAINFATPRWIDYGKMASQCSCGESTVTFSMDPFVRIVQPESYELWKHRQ
Description: The prioritized compounds were also evaluated in the screening assay using two different ferrous ion concentrations (termed high iron and low iron, respectively), in order to assess their propensity for iron chelation.
The ratio of IC50 values under high iron to low iron was calculated for each compound.

[2] = molecular target: T2, formaldehyde dehydrogenase (FDH) (Pseudomonas putida, UniProt P46154); assay: FDH coupling enzyme counterscreen; conditions: Table S1, FDH counterscreen; for IC50: unit not in table, from Figure 2, read-out: qHTS Data: jmjd2e fdh IC50
T2 construct: purchased Sigma-Aldrich
Excerpt: Dimethylsulfoxide certified ACS grade (DMSO) was from Fisher, Inc. HEPES buffer was obtained from Gibco. […] Black solid-bottom 1,536-well assay plates were from Greiner Bio-One (Monroe, NC).

[3] = molecular target: T3, JMJD2E (KDM4E) (Homo sapiens, UniProt B2RXH2); assay: qHTS fluorescence FDH-coupled JMJD2E demethylase assay
T3 construct: The catalytic domain of human JMJD2E (residues 1–337); His6 (N); made in house; host or cells: E. coli
T3 sequence (B2RXH2 1-337): T1 sequence (B2RXH2 1-337)
Excerpt: The oxidation of formaldehyde is coupled to the reduction of NAD^+ to NADH, which is monitored by fluorescence spectroscopy. […] To this end, initial screening hits were filtered by a combination of cheminformatics (to exclude low-confidence inhibitors and autofluorescent false positives), counterscreening against the coupled-assay component formaldehyde dehydrogenase (FDH), and orthogonal direct detection of inhibition of demethylation by mass spectrometry ( Figure 1 ).
Reactions were initiated with 1 µL addition of peptide substrate solution containing final concentrations of 10 µM FAS, 50 µM 2OG, 0.25 U/mL FDH, 0.25 mM NAD^+, and 50 µM peptide substrate (ARK(me3)STGGK). A ViewLux imager (PerkinElmer, Waltham, MA) was used to measure NADH fluorescence (λex 340 nm, λem 450 nm) immediately after substrate addition and following 30 min incubation at room temperature. To record any systematic drifts in assay behavior (signal window and noise), assay plates containing no library compounds but only DMSO as a vehicle control were tested periodically (every ∼60 plates) throughout the screen.
Data were normalized to the basal response (0% activity) in the absence of enzyme and the maximal response (100% activity) in the absence of compound. Using the Hill equation, dose-response curves and IC50 values were automatically generated for each compound tested with software developed internally (www.ncgc.nih.gov/pub/openhts/curvefit/). […] The initial well fluorescence (first kinetic read) associated with each sample was stored in a database and used in the cheminformatics analysis to identify autofluorescent compounds interfering with the assay signal.

[4] = high iron, head says 20 µM FAS, read-out: qHTS Data: jmjd2e fas20um IC50
[5] = low iron 2.5 µM FAS, read-out: qHTS Data: jmjd2e fas2.5um IC50
[6] = Table S1, unit not in table, from Figure 2, read-out: qHTS Data: jmjd2e IC50
[7] = Figure 3, substituted 8-hydroxyquinolines against JMJD2E, read-out: IC50 /μM (qHTS IC50, FDH-coupled assay)

T2 sequence (P46154 whole entry): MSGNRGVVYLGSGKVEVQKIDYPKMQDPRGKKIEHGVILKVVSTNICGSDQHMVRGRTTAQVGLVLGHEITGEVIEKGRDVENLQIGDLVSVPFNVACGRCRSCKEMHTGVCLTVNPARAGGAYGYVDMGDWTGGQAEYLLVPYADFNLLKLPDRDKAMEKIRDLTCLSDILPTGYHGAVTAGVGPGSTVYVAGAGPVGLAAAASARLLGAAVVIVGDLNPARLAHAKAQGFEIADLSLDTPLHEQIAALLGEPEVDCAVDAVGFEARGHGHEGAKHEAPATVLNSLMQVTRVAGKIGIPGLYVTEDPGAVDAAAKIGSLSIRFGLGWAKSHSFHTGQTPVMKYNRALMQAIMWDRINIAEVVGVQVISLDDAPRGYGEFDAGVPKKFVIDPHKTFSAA

SMILES	IC50 [1, 4] [µM]	IC50 [1, 5] [µM]	qHTS Data: jmjd2e fdh CurveClass [2]	IC50 [2] [µM]	IC50 [3, 6] [µM]	qHTS Data: jmjd2e fas20um CurveClass ([1]; high iron)	IC50 [3, 7] [µM]
O=C(CCc1ccccc1)NCC(=O)N/N=C/c1ccc(O)cc1O [compound 26660953]	4.47	4.47	Poor quality curve	17.8	6.31		
C=C1c2cccc(O)c2C(O)=C2C(=O)[C@]3(O)C(O)=C(C(N)=O)C(=O)C(N(C)C)C3C(O)C12.Cl (stereo partly drawn) [compound 26748477]	2.51	12.6	Inactive		8.91	Poor quality curve	
COc1ccccc1NC(=S)NNC(=O)c1nn(C)c(C)c1Br [compound 22404294]	2.51	3.98	Inactive		7.94		
O=c1c(O)cccc2cc(O)c(O)c(O)c12 [compound 26665710]	12.6	2.24	Poor quality curve	6.31	7.94		
Cc1cccc(OCC(=O)NCC(=O)N/N=C/c2ccc(O)cc2O)c1 [compound 26671311]		4.47	Poor quality curve	0.25	3.16	Inactive	
O=C(OCC1O[C@@H](OC(=O)c2cc(O)c(O)c(O)c2)[C@@H](OC(=O)c2cc(O)c(O)c(O)c2)[C@@H](OC(=O)c2cc(O)c(O)c(O)c2)[C@@H]1OC(=O)c1cc(O)c(O)c(O)c1)c1cc(O)c(O)c(O)c1 (stereo partly drawn) [compound 22405492]	14.1	1.12	Inactive		3.16		
NCC(O)c1ccc(O)c(O)c1.O=C(O)C(O)C(O)C(=O)O (stereo not drawn) [compound 50105780]	2	4.47	Inactive		12.6		
O=C1C=CC(=O)c2c(O)cccc21 [compound 26749198]	14.1	5.01	Inactive		7.08		
Cl.NC(CO)C(=O)NNCc1ccc(O)c(O)c1O (stereo not drawn) [compound 855739]	3.98	1.78	Inactive		2.24		
NC(=O)c1ccc(-n2nnnc2SCC(=O)c2ccc(O)c(O)c2)cc1 [compound 24821381]		7.94	Inactive		0.71	Inactive	
O=Cc1ccc(O)c2ncccc12 [compound 26664581]	56.2	7.08	Inactive		3.16	Poor quality curve	3.2
CCc1ccc2c(O)c3c(cc2c1C(=O)OC)C(=O)c1c(O)ccc(O)c1C3=O [compound 26749155]	11.2	3.98	Poor quality curve	3.16	2.82		
O=c1c(O)c(Br)ccc2c(Br)c(O)c(O)c(O)c12 [compound 50110019]		5.01	Poor quality curve	28.2	7.08	Inconclusive	
O=C(OC1Cc2c(O)cc(O)cc2OC1c1cc(O)c(O)c(O)c1)c1cc(O)c(O)c(O)c1 (stereo not drawn) [compound 26749738]	7.08	1.41	Poor quality curve	14.1	2.51		
COC(=O)c1cc(=O)c(O)c2c(O)c(O)ccc2c1 [compound 26749939]	22.4	7.94	Inactive		8.91		
CN(C)C1C(=O)C(C(N)=O)=C(O)[C@@]2(O)C(=O)C3=C(O)c4c(O)cccc4[C@@](C)(O)C3CC12.Cl (stereo partly drawn) [compound 26748266]	1.78	15.8	Poor quality curve	15.8	2.51		
CC(C)C1C(=O)C(C(N)=O)=C(O)[C@@]2(O)C(=O)C3=C(O)c4c(O)ccc(N(C)C)c4C[C@H]3C[C@@H]12.Cl (stereo partly drawn) [compound 50106632]	12.6	12.6	Inactive		10	Poor quality curve	
O=c1c(O)c(-c2ccc(O)c(O)c2)oc2c(O)c(O)cc(O)c12 [compound 26750048]		1.41	Inactive		2.82	Inactive	
O=C(OCC1OC(OC(=O)c2cc(O)c(O)c(OC(=O)c3cc(O)c(O)c(O)c3)c2)[C@@H](OC(=O)c2cc(O)c(O)c(OC(=O)c3cc(O)c(O)c(O)c3)c2)C(OC(=O)c2cc(O)c(O)c(OC(=O)c3cc(O)c(O)c(O)c3)c2)C1OC(=O)c1cc(O)c(O)c(OC(=O)c2cc(O)c(O)c(O)c2)c1)c1cc(O)c(O)c(OC(=O)c2cc(O)c(O)c(O)c2)c1 (stereo partly drawn) [compound 26748902]	15.8	0.16		7.94	0.28		
Oc1ccc(CNc2ccccc2)c2cccnc12 [compound 842629]	14.1	1.26	Inactive		8.91		8.9
Cl.NCCc1ccc(O)c(O)c1 [compound 50106387]	3.98	11.2	Inactive		12.6		
Oc1c(C(Nc2nccs2)c2ccc(C(F)(F)F)cc2)ccc2cccnc12 (stereo not drawn) [compound 24832893]	12.6	28.2	Inactive		3.55		
COc1ccc(N2C(=O)CC(Sc3ncn[nH]3)C2=O)c(OC)c1 (stereo not drawn) [compound 7974422]	35.5	1.41		0.32	2.82	Poor quality curve	
COc1cccc(O)c1O [compound 26749778]	15.8	4.47	Inactive		7.94		
CCOC(=O)Cc1csc(-n2sc3ccccc3c2=O)n1 [compound 3716597]		7.08	Inactive		10	Inactive	
Oc1ccc(NCc2cccc(OCc3ccccc3)c2)cc1 [compound 24795995]	35.5	14.1	Inactive		4.47		
Cc1ccc(N2C(=O)CC(Sc3ncn[nH]3)C2=O)cc1 (stereo not drawn) [compound 14726735]	31.6	2		0.32	2.51	Poor quality curve	
O=C(CC1Sc2ncnn2C1=O)Nc1ccc(Cl)cc1 (stereo not drawn) [compound 24795544]	7.94	2		0.25	1.58		
Cc1cc2c(C(C)C)c(O)c(O)c(C=O)c2c(O)c1-c1c(C)cc2c(C(C)C)c(O)c(O)c(C=O)c2c1O [compound 11112318]	15.8	1.12		31.6	7.94		
O=C(/C=C/c1ccccc1)NC(=S)NNC(=O)c1cnccn1 [compound 26725782]	7.08	7.08	Poor quality curve	35.5	8.91		

— PMC2990756, “Quantitative High-Throughput Screening Identifies 8-Hydroxyquinolines as Cell-Active Histone Demethylase Inhibitors” (PLoS ONE, 2010)
